# Assay results published in US20130252930A1 (BIOMARIN PHARMACEUTICAL INC., priority 2010, published 2013).
# Biological target: T1, CYP17 (human testicular microsome) (Homo sapiens, UniProt P05093)
# T1 construct: using microsomal fraction from human testis (Celsis Cat #S00110) as the enzyme source; tissue Celsis S00110; host or cells: human testis microsomal fraction
# T1 sequence (P05093 1-508): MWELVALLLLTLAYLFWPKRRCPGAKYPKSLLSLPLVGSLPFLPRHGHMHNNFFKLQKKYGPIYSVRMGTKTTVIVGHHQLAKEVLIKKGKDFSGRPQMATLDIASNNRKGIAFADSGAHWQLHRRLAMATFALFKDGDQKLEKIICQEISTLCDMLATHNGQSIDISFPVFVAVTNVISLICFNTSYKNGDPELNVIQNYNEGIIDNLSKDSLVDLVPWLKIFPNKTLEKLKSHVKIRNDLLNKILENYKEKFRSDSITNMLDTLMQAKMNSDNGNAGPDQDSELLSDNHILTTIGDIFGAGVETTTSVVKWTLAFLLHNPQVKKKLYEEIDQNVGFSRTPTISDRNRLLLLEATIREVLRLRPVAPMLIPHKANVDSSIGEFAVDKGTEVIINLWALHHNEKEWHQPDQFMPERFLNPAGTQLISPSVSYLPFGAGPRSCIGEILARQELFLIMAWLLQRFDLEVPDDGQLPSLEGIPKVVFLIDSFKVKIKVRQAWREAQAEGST
# Test: CYP17 enzymatic assay (% inhibition at 1 nM) (Biological Example 12)
# Format: biochemical
# Details: compound at 1 nM
row,Structure (SMILES),Biological Example No. 12: CYP17 enzymatic assay % inhibition at 1 nM
1,"C[C@]12CCNC(=O)CC1CCC1C2CC[C@]2(C)C(c3cncc(F)c3)=CCC12 (stereo partly drawn) [Compound 481, (5aS,7aS)-8-(5-fluoropyridin-3-yl)-5a,7a-dimethyl-4,5,5a,5b,6,7,7a,10,10a,10b,11,12,12a-tetradecahydrocyclopenta[5,6]naphtho[1,2-d]azepin-2(1H)-one]",N (N means the compound had a percent inhibition of greater than or equal to 10% but less than 50%)

# Same assay, conditions: compound at 1 nM, read-out: Biological Example No. 12: CYP17 enzymatic assay % inhibition at 1 nM
row,Structure (SMILES),inhibition at 0.001 µM
1,"C[C@]12CCC3(CO3)CC1CCC1C2CC[C@]2(C)C(c3cccnc3)=CCC12 (stereo partly drawn) [Compound 475, 3-((10S,13S)-10,13-dimethyl-1,2,4,5,6,7,8,9,10,11,12,13,14,15-tetradecahydrospiro[cyclopenta[a]phenanthrene-3,2′-oxiran]-17-yl)pyridine]",10 to 50%
2,"C[C@]12CCC3(CCC(=O)O3)CC1CCC1C2CC[C@]2(C)C(c3cccnc3)=CCC12 (stereo partly drawn) [Compound 477, (10S,13S)-10,13-dimethyl-17-(pyridin-3-yl)-1,2,4,5,6,7,8,9,10,11,12,13,14,15-tetradecahydro-3′H-spiro[cyclopenta[a]phenanthrene-3,2′-furan]-5′(4′H)-one]",< 10%
3,"CCNC(=O)N[C@@H]1CC[C@@]2(C)C(=CCC3C2CC[C@]2(C)C(c4cncc(F)c4)=CCC32)C1 (stereo partly drawn) [Compound 478, 1-ethyl-3-((3R,10R,13S)-17-(5-fluoropyridin-3-yl)-10,13-dimethyl-2,3,4,7,8,9,10,11,12,13,14,15-dodecahydro-1H-cyclopenta[a]phenanthren-3-yl)urea]",10 to 50%
4,"C[C@]12CCNC(=O)CC1CCC1C2CC[C@]2(C)C(c3cncc(C(F)F)c3)=CCC12 (stereo partly drawn) [Compound 483, (5aS,7aS)-8-(5-(difluoromethyl)pyridin-3-yl)-5a,7a-dimethyl-3,4,5,5a,5b,6,7,7a,10,10a,10b,11,12,12a-tetradecahydrocyclopenta[5,6]naphtho[1,2-d]azepin-2(1H)-one]",> 50%

# Same assay, conditions: compound at 1 nM, read-out: CYP17 enzymatic assay % inhibition at 1 nM (Biological Example No. 12)
row,inhibition at 0.001 µM,Structure (SMILES)
1,10 to 50%,"Cc1cncc(C2=CC=C3[C@@H]4CCC5CNC(=O)CC[C@]5(C)[C@H]4CC[C@]23C)c1 (stereo partly drawn) [Compound 461, (5aR,5bS,7aS,10bR)-5a,7a-dimethyl-8-(5-methylpyridin-3-yl)-1,2,5,5a,5b,6,7,7a,10b,11,12,12a-dodecahydrocyclopenta[5,6]naphtho[2,1-c]azepin-3(4H)-one]"
2,10 to 50%,"Cc1ccncc1C1=CC=C2C3CCC4CC(=O)NCC[C@]4(C)C3CC[C@]12C (stereo partly drawn) [Compound 463, (5aS,7aS)-5a,7a-dimethyl-8-(4-methylpyridin-3-yl)-3,4,5,5a,5b,6,7,7a,10b,11,12,12a-dodecahydrocyclopenta[5,6]naphtho[1,2-d]azepin-2(1H)-one]"
3,10 to 50%,"Cc1ccncc1C1=CC=C2C3CCC4CNC(=O)CC[C@]4(C)C3CC[C@]12C (stereo partly drawn) [Compound 464, (5aR,7aS)-5a,7a-dimethyl-8-(4-methylpyridin-3-yl)-1,2,5,5a,5b,6,7,7a,10b,11,12,12a-dodecahydrocyclopenta[5,6]naphtho[2,1-c]azepin-3(4H)-one]"
4,10 to 50%,"CCc1ccncc1C1=CC=C2C3CCC4CC(=O)NCC[C@]4(C)C3CC[C@]12C (stereo partly drawn) [Compound 467, (5aS,7aS)-8-(4-ethylpyridin-3-yl)-5a,7a-dimethyl-3,4,5,5a,5b,6,7,7a,10b,11,12,12a-dodecahydrocyclopenta[5,6]naphtho[1,2-d]azepin-2(1H)-one]"
5,10 to 50%,"CCc1ccncc1C1=CC=C2C3CCC4CNC(=O)CC[C@]4(C)C3CC[C@]12C (stereo partly drawn) [Compound 468, (5aR,7aS)-8-(4-ethylpyridin-3-yl)-5a,7a-dimethyl-1,2,5,5a,5b,6,7,7a,10b,11,12,12a-dodecahydrocyclopenta[5,6]naphtho[2,1-c]azepin-3(4H)-one]"
6,10 to 50%,"CCc1ccncc1C1=CC[C@H]2[C@@H]3CC[C@H]4CC(=O)NCC[C@]4(C)[C@H]3CC[C@]12C [Compound 469, (5aS,5bS,7aS,10aS,10bR,12aS)-8-(4-ethylpyridin-3-yl)-5a,7a-dimethyl-3,4,5,5a,5b,6,7,7a,10,10a,10b,11,12,12a-tetradecahydrocyclopenta[5,6]naphtho[1,2-d]azepin-2(1H)-one]"
7,< 10%,"CCc1ccncc1C1=CC[C@H]2[C@@H]3CC[C@H]4CNC(=O)CC[C@]4(C)[C@H]3CC[C@]12C [Compound 470, (5aR,5bS,7aS,10aS,10bR,12aR)-8-(4-ethylpyridin-3-yl)-5a,7a-dimethyl-1,2,5,5a,5b,6,7,7a,10,10a,10b,11,12,12a-tetradecahydrocyclopenta[5,6]naphtho[2,1-c]azepin-3(4H)-one]"

row,Structure (SMILES),inhibition at 0.001 µM
1,"CO[C@H]1CC[C@@]2(C)C(=CCC3C2CC[C@]2(C)C(n4ccnc4)=CCC32)C1 (stereo partly drawn) [Compound 459, 1-((3S,10R,13S)-3-methoxy-10,13-dimethyl-2,3,4,7,8,9,10,11,12,13,14,15-dodecahydro-1H-cyclopenta[a]phenanthren-17-yl)-1H-imidazole]",10 to 50%
2,"CCc1ccncc1C1=CC=C2C3CCC4C[C@@H](O)CC[C@]4(C)C3CC[C@]12C (stereo partly drawn) [Compound 465, (3S,10S,13S)-17-(4-ethylpyridin-3-yl)-10,13-dimethyl-2,3,4,5,6,7,8,9,10,11,12,13-dodecahydro-1H-cyclopenta[a]phenanthren-3-ol]",< 10%
3,"CC(=O)O[C@H]1CC[C@@]2(C)C(CCC3C4=CC=C(c5cnccc5C)[C@@]4(C)CCC32)C1 (stereo partly drawn) [Compound 466, (3S,10S,13S)-10,13-dimethyl-17-(4-methylpyridin-3-yl)-2,3,4,5,6,7,8,9,10,11,12,13-dodecahydro-1H-cyclopenta[a]phenanthren-3-yl acetate]",10 to 50%
4,"C[C@]12CC[C@H](O)CC1CCC1C2CC[C@]2(C)C(c3ccc[n+]([O-])c3)CCC12 (stereo partly drawn) [Compound 472, 3-((3S,10S,13S)-3-hydroxy-10,13-dimethylhexadecahydro-1H-cyclopenta[a]phenanthren-17-yl)pyridine 1-oxide]",10 to 50%
5,"C[C@]12CC[C@H](O)CC1CCC1C2CC[C@]2(C)C(c3cccnc3)CCC12 (stereo partly drawn) [Compound 473, (3S,10S,13S)-10,13-dimethyl-17-(pyridin-3-yl)hexadecahydro-1H-cyclopenta[a]phenanthren-3-ol]",< 10%

# Same assay, conditions: test compound at 1 nM, read-out: CYP17 enzymatic assay percent inhibition at 1 nM (Biological Example No. 12)
row,Structure (SMILES),inhibition at 0.001 µM
1,"Cc1ccncc1C1=CC[C@H]2[C@@H]3CC[C@H]4CNC(=O)CC[C@]4(C)[C@H]3CC[C@]12C [Compound 484, (5aR,5bS,7aS,10aS,10bR,12aR)-5a,7a-dimethyl-8-(4-methylpyridin-3-yl)-1,2,5,5a,5b,6,7,7a,10,10a,10b,11,12,12a-tetradecahydrocyclopenta[5,6]naphtho[2,1-c]azepin-3(4H)-one]",10 to 50%
2,"Cc1ccncc1C1=CC=C2C3CCC4C[C@@H](O)CC[C@]4(C)C3CC[C@]12C (stereo partly drawn) [Compound 485, (3S,10S,13S)-10,13-dimethyl-17-(4-methylpyridin-3-yl)-2,3,4,5,6,7,8,9,10,11,12,13-dodecahydro-1H-cyclopenta[a]phenanthren-3-ol]",10 to 50%
3,"Cc1ccncc1C1=CC=C2C3CCC4CC(=O)CC[C@]4(C)C3CC[C@]12C (stereo partly drawn) [Compound 486, (10S,13S)-10,13-dimethyl-17-(4-methylpyridin-3-yl)-4,5,6,7,8,9,10,11,12,13-decahydro-1H-cyclopenta[a]phenanthren-3(2H)-one]",10 to 50%
4,"CCc1ccncc1C1=CC=C2C3CCC4C[C@@H](OC(C)=O)CC[C@]4(C)C3CC[C@]12C (stereo partly drawn) [Compound 487, (3S,10S,13S)-17-(4-ethylpyridin-3-yl)-10,13-dimethyl-2,3,4,5,6,7,8,9,10,11,12,13-dodecahydro-1H-cyclopenta[a]phenanthren-3-yl acetate]",10 to 50%
5,"CCc1ccncc1C1=CC=C2C3CCC4CC(=O)CC[C@]4(C)C3CC[C@]12C (stereo partly drawn) [Compound 488, (10S,13S)-17-(4-ethylpyridin-3-yl)-10,13-dimethyl-4,5,6,7,8,9,10,11,12,13-decahydro-1H-cyclopenta[a]phenanthren-3(2H)-one]",10 to 50%

# Biological target: T1, CYP17 (human testicular microsome)
# Test: CYP17 enzymatic assay (IC50) (Biological Example 4)
# Format: biochemical
# Details: human testicular microsome, DHEA by ELISA; read-out: Biological Example No. 4: CYP17 enzymatic assay IC50
row,IC50,Structure (SMILES)
1,< 11 nM,"CC(=O)O[C@H]1CC[C@@]2(C)C(=CC[C@H]3C4=CC=C(n5ccnc5)[C@@]4(C)CC[C@@H]32)C1 [Compound 73, (3S,10R,13S)-17-(1H-imidazol-1-yl)-10,13-dimethyl-2,3,4,7,8,9,10,11,12,13-decahydro-1H-cyclopenta[a]phenanthren-3-yl acetate]"

# Same assay, conditions: human testicular microsome; read-out: Biological Example No. 4: CYP17 enzymatic assay IC50
row,Structure (SMILES),IC50
1,"C[C@]12CCC3C(CCC4CC(F)(F)CC[C@@]43C)C1=CC=C2c1cncc(F)c1 (stereo partly drawn) [Compound 402, 3-((10S,13S)-3,3-difluoro-10,13-dimethyl-2,3,4,5,6,7,8,9,10,11,12,13-dodecahydro-1H-cyclopenta[a]phenanthren-17-yl)-5-fluoropyridine]",> 25 nM
2,"C[C@]12CCC3C(CCC4CC(F)(F)CC[C@@]43C)C1=CC=C2c1cccnc1 (stereo partly drawn) [Compound 403, 3-((10S,13S)-3,3-difluoro-10,13-dimethyl-2,3,4,5,6,7,8,9,10,11,12,13-dodecahydro-1H-cyclopenta[a]phenanthren-17-yl)pyridine]",< 11 nM
